From patent US10703765B2 (priority 2014, dated 2020)
Counter-ions that a name gives are not always drawn. Like-named read-outs stand apart in the source and are kept apart here.

Target: human σ1 receptor (Homo sapiens, UniProt Q99720)
Assay: biochemical
Assay type: binding
Set-up: μ and σ1 dual binding: key to the marks not given beside the values
[1] = read-out: μ and σ1 dual binding

Chain of human σ1 receptor (Q99720 whole entry): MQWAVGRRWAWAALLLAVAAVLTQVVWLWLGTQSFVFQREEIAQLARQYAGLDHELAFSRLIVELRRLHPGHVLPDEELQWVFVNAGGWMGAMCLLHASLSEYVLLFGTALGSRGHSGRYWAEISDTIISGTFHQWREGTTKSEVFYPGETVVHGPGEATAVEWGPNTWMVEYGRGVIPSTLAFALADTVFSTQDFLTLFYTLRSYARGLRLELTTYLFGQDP

`CC1OC2(CCN(CCc3ccccc3)CC2)CN(CCc2cccnc2)C1=O` (stereo not shown) [Example 175, 2-methyl-9-phenethyl-4-(2-(pyridin-3-yl)ethyl)-1-oxa-4,9-diazaspiro[5.5]undecan-3-one dihydrochloride] gave a Ki of under 0.5 µM.
`O=C1COC2(CCN(CCc3ccccc3)CC2)CN1Cc1ccc(F)cn1` [Example 176, 4-((5-fluoropyridin-2-yl)methyl)-9-phenethyl-1-oxa-4,9-diazaspiro[5.5]undecan-3-one hydrochloride] showed a Ki [1] of under 0.5 µM.
`O=C1COC2(CCN(CCc3ccccc3)CC2)CN1Cc1ccc(C(F)(F)F)cn1` [Example 177, 9-phenethyl-4-((5-(trifluoromethyl)pyridin-2-yl)methyl)-1-oxa-4,9-diazaspiro[5.5]undecan-3-one hydrochloride] was tested, and the Ki was under 0.1 µM.
For `Cl.O=C1COC2(CCN(CCc3ccccc3)CC2)CN1CCc1ccncc1` [Example 178, 9-phenethyl-4-(2-(pyridin-4-yl)ethyl)-1-oxa-4,9-diazaspiro[5.5]undecan-3-one hydrochloride], the “μ and σ1 dual binding” value was “++”.
For `O=C1COC2(CCN(CCc3ccccc3)CC2)CN1Cc1cccc([N+](=O)[O-])c1` [Example 179, 4-(3-nitrobenzyl)-9-phenethyl-1-oxa-4,9-diazaspiro[5.5]undecan-3-one], the Ki [1] was over 0.5 µM.
`COCCCN1CC2(CCN(CCc3ccccc3)CC2)OC2(CC2)C1=O` [Example 180, 12-(3-methoxypropyl)-8-phenethyl-4-oxa-8,12-diazadispiro[2.1.5.3]tridecan-13-one hydrochloride] gave a Ki [1] of under 0.5 µM.
Molecule `N#CCCN1CC2(CCN(CCc3ccccc3)CC2)OC2(CC2)C1=O` [Example 181, 3-[13-oxo-8-phenethyl-4-oxa-8,12-diazadispiro[2.1.5.3]tridecan-12-yl]propanenitrile hydrochloride] has a Ki [1] of over 0.5 µM.
`CN(C)C(=O)CCN1CC2(CCN(CCc3ccccc3)CC2)OC2(CC2)C1=O` [Example 182, N,N-dimethyl-3-[13-oxo-8-phenethyl-4-oxa-8,12-diazadispiro[2.1.5.3]tridecan-12-yl]propanamide hydrochloride] gave a Ki [1] of over 0.5 µM.
With `CC1OC2(CCN(CCc3ccccc3)CC2)CN(CC(C)(C)O)C1=O` (stereo not shown) [Example 183, 4-(2-hydroxy-2-methylpropyl)-2-methyl-9-phenethyl-1-oxa-4,9-diazaspiro[5.5]undecan-3-one] the Ki [1] was over 0.5 µM.
`COCCN1CC2(CCN(CCc3ccccc3)CC2)OC2(CC2)C1=O.Cl` [Example 184, 12-(2-methoxyethyl)-8-phenethyl-4-oxa-8,12-diazadispiro[2.1.5.3]tridecan-13-one hydrochloride] was tested, and the “μ and σ1 dual binding” value was “++”.
Work on `O=C1N(CCOC2CCCCO2)CC2(CCN(CCc3ccccc3)CC2)OC12CC2` (stereo not shown) [Example 185, 12-(2-((tetrahydro-2H-pyran-2-yl)oxy)ethyl)-8-phenethyl-4-oxa-8,12-diazadispiro[2.1.5.3]tridecan-13-one] yielded a Ki [1] of over 0.5 µM.
`COC(=O)CCN1CC2(CCN(CCc3ccccc3)CC2)OC2(CC2)C1=O` [Example 186, methyl 3-(13-oxo-8-phenethyl-4-oxa-8,12-diazadispiro[2.1.5.3]tridecan-12-yl)propanoate] showed a Ki [1] of over 0.5 µM.
With `O=C1N(Cc2ccc(C(F)(F)F)cn2)CC2(CCN(CCc3ccccc3)CC2)OC12CC2` [Example 187, 8-phenethyl-12-{[5-(trifluoromethyl)pyridin-2-yl]methyl}-4-oxa-8,12-diazadispiro[2.1.5.3]tridecan-13-one dihydrochloride] the Ki [1] was under 0.1 µM.
For `Cl.O=C1COC2(CCN(Cc3ccccc3)CC2)CN1c1ccc(F)cc1` [Example 188, 9-benzyl-4-(4-fluorophenyl)-1-oxa-4,9-diazaspiro[5.5]undecan-3-one hydrochloride], the “μ and σ1 dual binding” value was “++”.
With `O=C1COC2(CCN(CCc3ccccc3)CC2)CN1c1ccccc1F` [Example 189, 4-(2-fluorophenyl)-9-phenethyl-1-oxa-4,9-diazaspiro[5.5]undecan-3-one] the Ki [1] was under 0.5 µM.
`O=C1COC2(CCN(CCc3ccccc3)CC2)CN1c1ccc(F)cc1` [Example 190, 4-(4-fluorophenyl)-9-phenethyl-1-oxa-4,9-diazaspiro[5.5]undecan-3-one] showed a Ki [1] of under 0.5 µM.
`O=C1COC2(CCN(CCc3ccccc3)CC2)CN1c1cccc(F)c1` [Example 191, 4-(3-fluorophenyl)-9-phenethyl-1-oxa-4,9-diazaspiro[5.5]undecan-3-one] gave a Ki [1] of under 0.5 µM.
`CC1OC2(CCN(CCc3ccccc3)CC2)CN(c2ccccc2F)C1=O` (stereo not shown) [Example 192, 4-(2-fluorophenyl)-2-methyl-9-phenethyl-1-oxa-4,9-diazaspiro[5.5]undecan-3-one hydrochloride] showed a Ki [1] of under 0.1 µM.
In the case of `CC1OC2(CCN(CCc3ccccc3)CC2)CN(c2ccccc2Cl)C1=O` (stereo not shown) [Example 193, 4-(2-chlorophenyl)-2-methyl-9-phenethyl-1-oxa-4,9-diazaspiro[5.5]undecan-3-one hydrochloride], the Ki [1] is reported as under 0.1 µM.
Molecule `CC1OC2(CCN(CCc3ccccc3)CC2)CN(c2cccnc2)C1=O` (stereo not shown) [Example 194, 2-methyl-9-phenethyl-4-(pyridin-3-yl)-1-oxa-4,9-diazaspiro[5.5]undecan-3-one hydrochloride] has a Ki [1] of under 0.5 µM.
`CC1OC2(CCN(CCc3ccccc3)CC2)CN(c2cnccn2)C1=O` (stereo not shown) [Example 195, 2-methyl-9-phenethyl-4-(pyrazin-2-yl)-1-oxa-4,9-diazaspiro[5.5]undecan-3-one hydrochloride] was tested, and the Ki [1] was under 0.5 µM.
In the case of `CC1OC2(CCN(CCc3ccccc3)CC2)CN(c2ccccn2)C1=O.Cl` (stereo not shown) [Example 196, 2-methyl-9-phenethyl-4-(pyridin-2-yl)-1-oxa-4,9-diazaspiro[5.5]undecan-3-one hydrochloride], the “μ and σ1 dual binding” value is reported as “++”.
With `CCOC(=O)c1cccc(N2CC3(CCN(CCc4ccccc4)CC3)OC(C)C2=O)c1.Cl` (stereo not shown) [Example 197, ethyl 3-(2-methyl-3-oxo-9-phenethyl-1-oxa-4,9-diazaspiro[5.5]undecan-4-yl)benzoate hydrochloride] the “μ and σ1 dual binding” value was “++”.
`CC1OC2(CCN(CCc3ccccc3)CC2)CN(c2cccc(C#N)c2)C1=O.Cl` (stereo not shown) [Example 198, 3-(2-methyl-3-oxo-9-phenethyl-1-oxa-4,9-diazaspiro[5.5]undecan-4-yl)benzonitrile hydrochloride] was tested, and the “μ and σ1 dual binding” value was “++”.
Molecule `CC1OC2(CCN(CCc3ccccc3)CC2)CN(c2cccc([N+](=O)[O-])c2)C1=O` (stereo not shown) [Example 199, 2-methyl-4-(3-nitrophenyl)-9-phenethyl-1-oxa-4,9-diazaspiro[5.5]undecan-3-one] has a Ki [1] of over 0.5 µM.
For `CC1OC2(CCN(CCc3ccccc3)CC2)CN(c2nn(C)c3ccccc23)C1=O.Cl` (stereo not shown) [Example 200, 2-methyl-4-(1-methyl-1H-indazol-3-yl)-9-phenethyl-1-oxa-4,9-diazaspiro[5.5]undecan-3-one hydrochloride], the “μ and σ1 dual binding” value was “++”.
For `CC1OC2(CCN(CCc3ccccc3)CC2)CN(c2ccc3cnn(C)c3c2)C1=O.Cl` (stereo not shown) [Example 201, 2-methyl-4-(1-methyl-1H-indazol-6-yl)-9-phenethyl-1-oxa-4,9-diazaspiro[5.5]undecan-3-one hydrochloride], the “μ and σ1 dual binding” value was “++”.
`CC1OC2(CCN(CCc3ccccc3)CC2)CN(c2ccc3c(c2)OCO3)C1=O` (stereo not shown) [Example 202, 4-(benzo[d][1,3]dioxol-5-yl)-2-methyl-9-phenethyl-1-oxa-4,9-diazaspiro[5.5]undecan-3-one hydrochloride] was tested, and the Ki was under 0.5 µM.
